# According to US20240302280A1, “PREPARATION METHOD AND APPLICATION OF VISCOSITY FLUORESCENT PROBE” (Zhengzhou University of Light Industry, priority 2023, published 2024):
# Experiments:
# [1] = Spectral response of the probe to solution viscosity (glycerol/MeOH); format: physicochemical; conditions: viscosity increased from 1.4 cp to 955 cp by glycerol/MeOH volume ratio
# Text: Therefore, it may be concluded that the fluorescence intensity of TzAr-Nap-OH may be used as a reliable indicator for a quantitative viscosity sensor.
# [2] = Effect of solution pH on probe fluorescence in PBS/THF (4/1); format: physicochemical; conditions: pH range 1.64 to 11.45
# Protocol: 20 μL of the fluorescent probe stock solution were taken and added dropwise into a PBS/THF (4/1) system, resulting in a final volume of 2 mL.
# [3] = Effect of interfering substances on probe fluorescence in PBS/THF (4/1); format: physicochemical; conditions: 10 μM interfering substances
# Protocol: 20 μL of the fluorescent probe stock solution were taken and added dropwise into the PBS/THF (4/1) system, into which 10 μM of other interfering substance solutions were added dropwise, resulint in a final volume is 2 mL. Other interfering substances had little effect on the fluorescence intensity of TzAr-Nap-OH.
# HeLa cells [4] = assay: MTT cytotoxicity experiment; format: cell-based; conditions: 0-20 μM probe, 24 hours
# HeLa cells [5] = assay: Cell imaging of response to viscosity (monensin-treated cells); format: cell-based; conditions: probe 10 μM, 30 min, λex=360 nm
# Protocol: FIG. 9 is a fluorescence image of Hela cells; (a-c) HeLa cells were cultured with TzAr-Nap-OH (10 μM) for 30 minutes; (d-f) HeLa cells were treated with monensin (Mo) and incubated with the TzAr-Nap-OH probe for 30 minutes; λex=360 nm, slit=5 nm, scale bar=20 μm.
# Images a-c were obtained by treating HeLa cells with TzAr-Nap-OH (10 μM) for 30 mins. HeLa cells were first treated with monensin to increase cell viscosity, and then treated with TzAr-Nap-OH (10 μM) to obtain images d-f.
compound,measurement,setting,value
Oc1ccc2cc(/C=C/c3nc(-c4ccccc4)nc(-c4ccccc4)n3)ccc2c1 [TzAr-Nap-OH],increase of fluorescence intensity at 520 nm,[1],~15 times
same,change of fluorescence intensity with pH,[2],did not change significantly
same,effect of other interfering substances on fluorescence intensity,[3],little effect
same,survival rate (cell viability),HeLa cells [4],over 81%
same,fluorescence intensity of monensin-treated cells versus normal cells,HeLa cells [5],significantly higher
